Target: Sodium-dependent dopamine transporter (Homo sapiens, UniProt Q01959)
Test: Ability to inhibit human dopamine uptake by the human dopamine transporter in EM4 cells stably infected with Flag HA-hDAT
Type: functional, cell-based

Sequence of Sodium-dependent dopamine transporter (Q01959 whole entry): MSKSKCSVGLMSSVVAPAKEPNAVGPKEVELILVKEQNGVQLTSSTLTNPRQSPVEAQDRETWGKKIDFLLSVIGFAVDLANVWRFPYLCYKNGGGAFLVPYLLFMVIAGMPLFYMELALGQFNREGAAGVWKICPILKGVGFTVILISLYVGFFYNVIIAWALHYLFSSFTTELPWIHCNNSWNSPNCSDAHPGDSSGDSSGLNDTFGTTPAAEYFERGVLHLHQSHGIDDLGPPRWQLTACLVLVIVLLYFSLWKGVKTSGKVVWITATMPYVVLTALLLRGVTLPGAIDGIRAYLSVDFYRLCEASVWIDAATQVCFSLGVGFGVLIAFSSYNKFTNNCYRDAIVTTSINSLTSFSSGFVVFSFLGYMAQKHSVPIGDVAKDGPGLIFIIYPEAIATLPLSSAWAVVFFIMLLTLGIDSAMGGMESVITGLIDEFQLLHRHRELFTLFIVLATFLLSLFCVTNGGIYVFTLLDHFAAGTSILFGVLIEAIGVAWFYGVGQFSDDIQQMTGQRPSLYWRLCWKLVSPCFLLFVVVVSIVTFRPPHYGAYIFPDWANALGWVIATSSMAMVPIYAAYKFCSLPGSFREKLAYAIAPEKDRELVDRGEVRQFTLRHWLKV

| SMILES | IC50 [nM] |
| --- | --- |
| COC(=O)[C@@H]1C2CCC(C[C@@H]1c1ccc(Cl)c(Cl)c1)N2C (some centres not stated) | 1.1 |
| COC(=O)[C@@H]1C2CCC(C[C@@H]1c1ccc(Cl)c(Cl)c1)N2 (some centres not stated) | 1.4 |
